Measurements: patent US8906910B2, “Imidazopyridine derivatives as PI3 kinase” (GlaxoSmithKline LLC, priority 2011, dated 2014)

Legend:
PI3Kβ = target: T1, PI3Kβ (Homo sapiens, UniProt P42338); assay: HTRF in vitro profiling assay for PI3K inhibition (beta isoform); format: biochemical; conditions: 200 pM enzyme, 100 uM ATP, 10 uM PIP2, 150 mM NaCl, corrected pIC50, single run or average of two or more runs; for IC50: read-out: PI3K b pIC50 (converted)
T1 construct: made in house
Excerpt: The PI3-Kinase profiling assays were developed to measure the compound-dependent inhibition of the alpha, beta, delta, and gamma isoforms of PI3Kin an in vitro catalytic assay. This assay was developed and optimized from a kit produced by Upstate (Millipore catalog #33-017). Briefly, this procedure utilizes a pre-formed HTRF (Homogeneous Time-Resolved Fluorescence energy transfer) complex between four binding partners: 1) biotinylated PIP3, 2) GST tagged pleckstrin homology (PH) domain, 3) Europium labeled anti-GST monoclonal antibody, and 4) Streptavidin-Allophycocyanin (APC). The native PIP3 produced by PI 3-Kinase activity displaces biotin-PIP3 from the PH domain, resulting in the dissociation of the HTRF complex and a decrease in the fluorescence signal. The format of this assay is the same for all 4 isoforms of PI3K; the differences lie in the concentration of enzyme used to achieve the most robust signal. The alpha and delta assays are run at 400 pM enzyme; the beta assay is at 200 pM enzyme and the gamma assay is run at 1 nM enzyme. In addition, the alpha, beta and delta assays are run with 150 mM NaCl while the gamma assay is run in the absence of NaCl. The ATP concentration is 100 uM in the alpha, beta, and delta assays and 15 uM ATP in the gamma assay. All reactions are run at 10 uM PIP2
Compounds were serially diluted (3-fold in 100% DMSO) across a 384-well polypropylene mother plate from column 1 to column 12 and column 13 to column 24, to yield 11 concentrations for each test compound. Columns 6 and 18 contain only DMSO. Once titrations were made, 0.054 was transferred to a 384-well low-volume assay plate (Greiner 784076). This assay plate contained three pharmacological controls (known PI3K inhibitors) and 3 assay controls: (1) Enzyme without inhibitor; (2) Buffer minus enzyme, and (3) Buffer minus enzyme plus native PIP3. DMSO was stamped into all wells of columns 6 and 18. PIP3 was added at 40 μM in 1× Reaction buffer (1 μL of 200 μM PIP3) to alternating rows of column 18 (wells 18 B, D, F, H, J, L, N, P). The no-enzyme control reactions were run in wells 18 A, C, E, G, I, K, M, O (0.14 of 100% DMSO).
The PI3-Kinase profiling assay was optimized using the HTRF kit provided by Upstate (Millipore). The assay kit contained seven reagents: 1) 4× Reaction Buffer; 2) native PIP2 (substrate); 3) Stop A (EDTA); 4) Stop B (Biotin-PIP3); 5) Detection Mix A (Streptavidin-APC); 6) Detection Mix B (Eu-labeled Anti-GST plus GST-tagged PH-domain); 7) Detection Mix C (KF). In addition, the following items were obtained or purchased: PI3Kinase (prepared by GSK BR&AD), dithiothreitol (Sigma, D-5545), Adenosine-5′-triphosphate (ATP, Teknova cat. #A0220), native PIP3 (1,2-dioctanoyl-sn-glycero-3-[phosphoinositil-3,4,5-triphosphate]tetraammonium salt (Avanti polar lipids, 850186P), DMSO (Sigma, 472301).
PI3Kinase Reaction Buffer was prepared by diluting the stock 1:4 with de-ionized water. Freshly prepared DTT was added at a final concentration of 5 mM on the day of use. Enzyme addition and compound pre-incubation were initiated by the addition of 2.5 μL of PI3K (at twice its final concentration) in 1× reaction buffer to all wells using a Multidrop Combi. Plates were incubated at room temperature for 15 minutes. Reactions were initiated by addition of 2.5 μL of 2× substrate solution (PIP2 and ATP in 1× reaction buffer) using a Multidrop Combi. Plates were incubated at room temperature for one hour. Reactions were quenched by the addition of 2.5 μL of stop solution (Stop A and Stop B pre-mixed at a ratio of 5:1, respectively) to all wells using the Multidrop Combi. […]

[1] = test system: phosphorylation of AKT (Ser473) in MDA-MB-468 tumor cells; assay: Inhibition of phosphorylation of AKT in PTEN deficient tumor cell line MDA-MB-468 (MSD Ser473-AKT); format: cell-based; conditions: Homo sapiens, 0.5 h; MDA-MB-468 breast cancer cells, 30 minutes compound treatment, Ser473-pAKT normalized to total AKT
Method: Compounds were evaluated for their ability to inhibit downstream phosphorylation of AKT in MDA-MB-468 tumor cells. Breast cancer cells were plated, incubated for approximately 16-20 hours and then treated with compound for 30 minutes. Final DMSO concentration on all cells was 0.15%. The cells were washed with Tris buffer and lysed in MesoScale Discovery (MSD) lysis buffer containing protease and phosphatase inhibitors (included in MSD kit). MSD Ser473-AKT duplex plates (Cat #MS6000) were used according to the manufacturer's instructions and plates were read on a SECTOR™ Imager 6000 using MSD Workbench software. For analysis of the Ser473-pAKT concentration response curves, the data was normalized using the corresponding total AKT value (sum of pAKT and AKT signal) and plotted as the percent of the DMSO-treated control values. The data was fit in Graphpad Prism version 4 for Windows (Graphpad Software, San Diego, Calif.).

MDA-MB-468 cells = assay: Cell growth inhibition in PTEN-deficient cell line MDA-MB-468 (anchorage independent, Alamar Blue); format: cell-based; conditions: Homo sapiens, 144 h, MDA-MB-468, anchorage independent conditions, 6 days incubation, read-out: Prolif EC50 (nM) MDA-MB-468
Method: PTEN deficient tumor cell lines (MDA-MB-468) were cultured generally according to instructions supplied by cell culture supplier American Type Culture Collection, Manassas, Va., with 10% fetal bovine serum at 5% CO2 and 37° C. Cells were seeded into either a T-75 or a T-175 flask 3-4 days prior to 96-well assay plating such that the flasks were approximately 70-80% confluent of the time of harvest. Cells were harvested using 0.25% trypsin-EDTA (Invitrogen #25200056). Trypan Blue exclusion staining was used to determine cell number.
Viable cells were plated in clear, flat bottom 96-well plates (BD #353075) under anchorage independent conditions at 2,000-10,000 cells per well depending on the cell line. To generate anchorage independent growth conditions, a 5% agar stock solution in water was made and autoclaved to melt and sterilize. From the 5% agar solution, a 0.6% agar/media+10% fetal bovine serum (FBS) solution was made to generate a bottom agar layer in the plates to prevent cell attachment. Seventy five microliters per well of the 0.6% agar-media solution was added to the plates. After solidification, a cell solution of 266,870 to 1, 334,022 cells (depending on the cell line) in 10 ml of 0.3% agar/media+10% FBS was made and 75 μl of the cell/media/agar suspension was added to the plates. After the cell layer solidified, 50 μl of media+10% FBS was added to the top of the cells. A 0.3% Brij 35 (Sigma B4184) solution in media+10% FBS was added to column 12 as a background subtraction control. The cells were incubated overnight at 5% CO2 and 37° C. The next day one plate of cells was processed at the time of compound addition to quantify the starting number of cells (T=0 or T0).
To generate the compound titration plates, 15 μl of a 2 mM or 20 μl of a 20 mM solution of the compound of example 31 was diluted in clear bottom polypropylene 96-well plate (BD #351190) using a 10 point, 3-fold titration or a 20 point 2-fold titration, respectively. Three hundred microliters of media was added to the compound dilutions. Ten microliters per well of the serial dilutions was added to the cells and the plates incubated for 6 days at 5% CO2 and 37° C. The final concentration of DMSO in all wells was 0.15% and the highest final concentration of the compound of example 31 was 3.7 μM or 30.7 μM.
Following the 6-day incubation, 20 μl of Alamar Blue (Invitrogen #DAL1100) was added to the cells, incubated at 5% CO2 and 37° C. for 6 hours and the plates read on a Spectramax (Gemini EM) at 530 nm (excitation) and 590 nm (emission) with the auto cut-off disabled. For analysis of cell growth inhibition dose response curves, the data was plotted as the percent of the DMSO-treated control samples (DMSO samples set to 100%). The cellular response was determined for compounds and control compounds by fitting the concentration response with a 4 parameter curve fit using XLfit software and determining the concentration that inhibits 50% of the Ymax-Ymin window (EC50). The EC50 is the midpoint of active compound effect window (between Ymax plateau and Ymin plateau of compound) and represents the concentration of the compound of example 31 where 50% of its maximal effect is observed. Values from wells containing 0.3% Brij 35 (under anchorage independent conditions) were subtracted from all samples for background correction. The compounds listed in Table 3 were tested generally according to the assays described herein. […]

T1 sequence (P42338 whole entry, canonical isoform): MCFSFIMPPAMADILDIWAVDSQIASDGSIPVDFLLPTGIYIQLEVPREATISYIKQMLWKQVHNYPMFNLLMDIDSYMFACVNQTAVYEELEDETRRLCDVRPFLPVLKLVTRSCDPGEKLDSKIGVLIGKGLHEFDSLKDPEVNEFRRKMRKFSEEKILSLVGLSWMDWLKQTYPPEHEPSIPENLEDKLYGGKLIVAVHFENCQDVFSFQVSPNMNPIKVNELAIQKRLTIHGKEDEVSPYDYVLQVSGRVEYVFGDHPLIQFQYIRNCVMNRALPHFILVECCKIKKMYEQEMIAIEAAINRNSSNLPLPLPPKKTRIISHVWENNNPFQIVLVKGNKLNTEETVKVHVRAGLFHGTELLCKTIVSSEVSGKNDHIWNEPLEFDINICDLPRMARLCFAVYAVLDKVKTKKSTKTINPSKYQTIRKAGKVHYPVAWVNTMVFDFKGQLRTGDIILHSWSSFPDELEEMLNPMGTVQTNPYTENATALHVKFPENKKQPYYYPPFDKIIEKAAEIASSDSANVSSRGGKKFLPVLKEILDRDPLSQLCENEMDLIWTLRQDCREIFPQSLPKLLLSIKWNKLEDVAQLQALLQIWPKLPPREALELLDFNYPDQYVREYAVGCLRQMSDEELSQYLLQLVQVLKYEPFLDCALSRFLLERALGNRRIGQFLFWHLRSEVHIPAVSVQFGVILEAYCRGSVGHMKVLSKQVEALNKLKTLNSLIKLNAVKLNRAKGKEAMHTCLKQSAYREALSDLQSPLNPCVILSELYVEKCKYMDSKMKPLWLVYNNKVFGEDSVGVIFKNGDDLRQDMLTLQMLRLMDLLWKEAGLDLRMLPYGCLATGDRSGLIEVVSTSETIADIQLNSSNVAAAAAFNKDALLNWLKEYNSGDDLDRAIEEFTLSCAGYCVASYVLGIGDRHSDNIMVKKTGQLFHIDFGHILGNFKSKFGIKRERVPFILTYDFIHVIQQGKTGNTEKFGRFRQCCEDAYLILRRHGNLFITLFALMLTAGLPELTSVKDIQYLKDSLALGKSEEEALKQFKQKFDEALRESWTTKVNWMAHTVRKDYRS
T1 sequence (P27986 whole entry partner, canonical isoform): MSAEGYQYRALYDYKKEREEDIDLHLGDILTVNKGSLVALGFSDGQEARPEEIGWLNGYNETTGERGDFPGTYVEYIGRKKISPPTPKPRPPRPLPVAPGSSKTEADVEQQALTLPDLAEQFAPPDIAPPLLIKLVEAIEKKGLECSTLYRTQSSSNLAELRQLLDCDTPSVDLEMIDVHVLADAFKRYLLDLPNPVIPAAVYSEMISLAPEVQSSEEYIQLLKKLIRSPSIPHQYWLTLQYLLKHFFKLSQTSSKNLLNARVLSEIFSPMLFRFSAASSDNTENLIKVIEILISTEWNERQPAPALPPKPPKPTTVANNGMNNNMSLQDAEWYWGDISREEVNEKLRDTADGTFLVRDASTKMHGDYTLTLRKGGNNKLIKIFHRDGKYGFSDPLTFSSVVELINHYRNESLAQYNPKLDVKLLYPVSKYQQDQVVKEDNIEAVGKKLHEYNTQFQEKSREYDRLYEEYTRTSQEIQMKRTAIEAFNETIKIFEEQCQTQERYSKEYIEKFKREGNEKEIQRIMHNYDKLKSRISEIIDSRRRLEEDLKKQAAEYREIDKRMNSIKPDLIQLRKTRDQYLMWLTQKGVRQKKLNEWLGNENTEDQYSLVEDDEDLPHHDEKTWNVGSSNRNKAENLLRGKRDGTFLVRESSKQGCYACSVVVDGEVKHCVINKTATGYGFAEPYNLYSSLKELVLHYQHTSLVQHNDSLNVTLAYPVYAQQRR

Structure (SMILES)	PI3K b pIC50 (PI3Kβ)	IC50 [1] [nM]	EC50 (MDA-MB-468 cells) [nM]	IC50 (PI3Kβ) [µM]
Cc1c(Cn2c(C)nc3c(C(=O)O)cc(N4CCOCC4)nc32)cccc1C(F)(F)F [Example 3, 2-methyl-3-(2-methyl-3-(trifluoromethyl)benzyl)-5-morpholino-3H-imidazo[4,5-b]pyridine-7-carboxylic acid]	8.3	436	41	–
Cc1nc2ccc(N3CCOCC3)nc2n1Cc1cccc(Cl)c1Cl [Example 8, 4-(3-(2,3-dichlorobenzyl)-2-methyl-3H-imidazo[4,5-b]pyridin-5-yl)morpholine]	–	406	1500	0.0398
Cc1nc2c(C(=O)O)cc(N3CCOCC3)nc2n1Cc1cccc2ccccc12 [Example 6, 2-methyl-5-morpholino-3-(naphthalen-1-ylmethyl)-3H-imidazo[4,5-b]pyridine-7-carboxylic acid]	–	75.3	66.5	0.00158
Cc1c(Cn2cnc3c(O)cc(N4CCOCC4)nc32)cccc1C(F)(F)F [Example 1, 3-(2-methyl-3-(trifluoromethyl)benzyl)-5-morpholino-3H-imidazo[4,5-b]pyridin-7-ol]	–	477	–	0.00158
Cc1nc2c(C(=O)O)cc(N3CCOCC3)nc2n1Cc1cccc(Cl)c1Cl [Example 4, 3-(2,3-dichlorobenzyl)-2-methyl-5-morpholino-3H-imidazo[4,5-b]pyridine-7-carboxylic acid]	8.3	41.4	153	–
Cc1nc2ccc(N3CCOCC3)nc2n1Cc1cccc2ccccc12 [Example 7, 4-(2-methyl-3-(naphthalen-1-ylmethyl)-3H-imidazo[4,5-b]pyridin-5-yl)morpholine]	–	126	–	0.00631
Oc1cc(N2CCOCC2)nc2c1ncn2Cc1cccc2ccccc12 [Example 2, 5-morpholino-3-(naphthalen-1-ylmethyl)-3H-imidazo[4,5-b]pyridin-7-ol]	–	578	–	0.00316
Cc1c(Cl)cccc1Cn1c(C)nc2c(C(=O)O)cc(N3CCOCC3)nc21 [Example 5, 3-(3-chloro-2-methylbenzyl)-2-methyl-5-morpholino-3H-imidazo[4,5-b]pyridine-7-carboxylic acid]	8.8	15.9	18.1	–
